Laboratory results: article PMC6934184, “Selective DNA-PKcs inhibition extends the therapeutic index of localized radiotherapy and chemotherapy” (The Journal of Clinical Investigation, 2019)

Biological target: T1, RET V804M (Homo sapiens, UniProt P07949, V804M)
T1 construct: purchased Thermo Fisher Scientific (Life Technologies) SelectScreen
Assay: SelectScreen LanthaScreen
Type: binding
Details: read-out: % displacement
Procedure, shortened: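 Percent values come from Thermo SelectScreen profiling of NU5455, combining activity and binding assays. CSF1R was run in Z'LYTE format at Km app ATP, and CAMK1 in Adapta format with ATP listed at 10.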

T1 sequence (P07949 29-1114 V804M): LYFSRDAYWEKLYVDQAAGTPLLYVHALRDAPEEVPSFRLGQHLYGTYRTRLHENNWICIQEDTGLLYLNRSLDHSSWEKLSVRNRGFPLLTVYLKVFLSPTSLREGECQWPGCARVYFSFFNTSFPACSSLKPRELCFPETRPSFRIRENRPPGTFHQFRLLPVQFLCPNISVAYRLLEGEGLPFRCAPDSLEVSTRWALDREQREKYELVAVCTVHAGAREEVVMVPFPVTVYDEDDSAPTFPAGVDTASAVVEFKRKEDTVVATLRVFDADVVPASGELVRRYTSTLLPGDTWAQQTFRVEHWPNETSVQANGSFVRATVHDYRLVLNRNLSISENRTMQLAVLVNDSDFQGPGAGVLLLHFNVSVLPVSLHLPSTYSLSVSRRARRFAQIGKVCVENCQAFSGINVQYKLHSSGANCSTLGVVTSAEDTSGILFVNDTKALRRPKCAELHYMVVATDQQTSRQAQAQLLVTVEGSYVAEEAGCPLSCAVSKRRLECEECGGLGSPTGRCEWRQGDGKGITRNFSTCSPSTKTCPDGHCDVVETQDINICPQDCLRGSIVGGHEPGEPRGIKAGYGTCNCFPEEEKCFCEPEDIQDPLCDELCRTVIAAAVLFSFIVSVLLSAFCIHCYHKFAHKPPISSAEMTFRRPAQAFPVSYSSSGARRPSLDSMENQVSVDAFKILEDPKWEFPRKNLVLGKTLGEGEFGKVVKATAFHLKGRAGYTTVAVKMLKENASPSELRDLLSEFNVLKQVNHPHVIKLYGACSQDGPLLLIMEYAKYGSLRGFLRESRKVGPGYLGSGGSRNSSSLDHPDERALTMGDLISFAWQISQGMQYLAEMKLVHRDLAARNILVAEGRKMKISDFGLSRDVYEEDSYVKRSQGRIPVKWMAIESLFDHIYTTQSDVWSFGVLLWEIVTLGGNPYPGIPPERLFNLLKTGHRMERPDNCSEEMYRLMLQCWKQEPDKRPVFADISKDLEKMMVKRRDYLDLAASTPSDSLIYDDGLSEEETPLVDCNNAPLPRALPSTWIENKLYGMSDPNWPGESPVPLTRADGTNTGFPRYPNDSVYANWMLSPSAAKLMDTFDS

`CN(C(=O)CN1CCOCC1)c1ccc2sc3c(-c4cccc5c(=O)cc(N6CC7CCC(C6)O7)oc45)cccc3c2c1` [NU5455] was tested, and the inhibition at 1 µM was 11.3%.
